# Read-outs that look alike come from different tables or passages of the source.
# Key:
# [1] = Rat Plasma Protein Stability (% Remaining); assay type: in vitro ADME; conditions: average
# [2] = target: T1, human recombinant COX2 (hCOX2) (UniProt P35354); experiment: LCMS-based COX2 enzymatic inhibition assay (PGE2 quantification); assay type: biochemical; set-up: COX2 2 minutes pge2/pge2d4 area ratio Avg; other: 2 minutes; readout pge2/pge2d4 area ratio; average; COX2 2 minutes pge2/pge2d4 area ratio Avg; LLE; average LLE; COX2 2 minutes pge2 area (counts) Avg; readout pge2 area (counts); other: 2 min; "ovine COX2 (oCOX2), human recombinant COX2 (hCOX2)"; conditions: 2 minutes; for COX2 2 minutes pge2/pge2d4 area ratio Avg. LLE / COX2 2 minutes pge2 area (counts) Avg. LLE: average LLE; for IC50: average
# T1 sequence (P35354 1-604): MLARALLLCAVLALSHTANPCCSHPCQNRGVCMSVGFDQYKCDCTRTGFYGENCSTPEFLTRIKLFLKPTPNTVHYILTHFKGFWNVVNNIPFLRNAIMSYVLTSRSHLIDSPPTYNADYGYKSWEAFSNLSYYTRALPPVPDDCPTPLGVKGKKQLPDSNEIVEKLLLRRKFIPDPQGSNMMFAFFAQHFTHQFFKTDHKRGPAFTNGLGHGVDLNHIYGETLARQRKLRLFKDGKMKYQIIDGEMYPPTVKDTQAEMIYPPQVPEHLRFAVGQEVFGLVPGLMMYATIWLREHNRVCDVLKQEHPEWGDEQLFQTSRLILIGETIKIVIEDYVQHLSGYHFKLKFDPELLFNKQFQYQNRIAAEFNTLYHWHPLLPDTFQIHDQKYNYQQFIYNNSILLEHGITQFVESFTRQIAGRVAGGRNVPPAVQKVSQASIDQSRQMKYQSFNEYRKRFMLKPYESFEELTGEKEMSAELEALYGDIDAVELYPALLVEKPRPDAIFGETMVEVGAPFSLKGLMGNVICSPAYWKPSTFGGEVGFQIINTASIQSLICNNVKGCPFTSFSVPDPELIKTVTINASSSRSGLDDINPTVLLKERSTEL
# Summary of the method: (§1)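 Ovine COX-1 (0.1 μg) or human recombinant COX2 (0.2 μg) in 100 mM Tris.HCl pH 8.0 with hematin and epinephrine, preincubated with inhibitor 10 min at 37 °C. Reaction with 5 μM arachidonic acid stopped after 2 min with HCl; PGE2 quantified by LC-MS-MS. IC50 from 12 concentrations in triplicate.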
# [3] = Human Microsome Stability; assay type: in vitro ADME; conditions: human microsomes
# [4] = rat plasma protein binding (PPB) assay; assay type: in vitro ADME; conditions: average, read-out: Rat Plasma Protein Binding % Bound Avg (converted)
# Procedure: We have adapted a previously reported cyclooxygenase enzymatic assay utilizing LCMS quantification of PGE2 as the product of COX-1 and COX2 catalyzed conversion of arachidonic acid to evaluate the binding properties of newly synthesized ligands [Cao, 2011]. These optimized and miniaturized (384-well plates) LCMS-based COX-1 and COX2 enzymatic assays enabled us to quickly evaluate newly synthesized ligands for COX2 binding affinity and selectivity vs COX-1. Using a shorter ligand-enzyme incubation time in the LCMS assay (2 minutes vs 10 minutes) also permitted us to prioritize ligands with faster binding kinetics. Considering the relatively slow on-rate kinetics of known coxibs, due to their 3-step binding mechanism [Marnett, 2009], we believe that optimizing this critical parameter will be key to the successful development of a COX2 PET tracer. Using these enzymatic assays, we have evaluated>200 newly synthesized ligands against COX2 and >20 ligands against COX-1. Another critical property necessary for a good PET radiotracer is to have low non-specific binding (NSB) to increase the free fraction and maximize the signal to noise ratio. This property can be evaluated using in-vitro protein binding assays, and we have now evaluated>50 newly synthesized ligands in mouse, rat and human plasma protein binding (PPB) assays as well as >15 ligands in a mouse brain protein binding (BPB) assay.
# ovine COX-1 (oCOX-1) = target: T2, ovine COX-1 (oCOX-1) (Ovis aries, UniProt P05979); experiment: LCMS-based COX-1 enzymatic inhibition assay (PGE2 quantification); assay type: biochemical
# T2 construct: purchased Cayman Chemicals (Ann Arbor, Mich.)
# T2 sequence (P05979 25-600): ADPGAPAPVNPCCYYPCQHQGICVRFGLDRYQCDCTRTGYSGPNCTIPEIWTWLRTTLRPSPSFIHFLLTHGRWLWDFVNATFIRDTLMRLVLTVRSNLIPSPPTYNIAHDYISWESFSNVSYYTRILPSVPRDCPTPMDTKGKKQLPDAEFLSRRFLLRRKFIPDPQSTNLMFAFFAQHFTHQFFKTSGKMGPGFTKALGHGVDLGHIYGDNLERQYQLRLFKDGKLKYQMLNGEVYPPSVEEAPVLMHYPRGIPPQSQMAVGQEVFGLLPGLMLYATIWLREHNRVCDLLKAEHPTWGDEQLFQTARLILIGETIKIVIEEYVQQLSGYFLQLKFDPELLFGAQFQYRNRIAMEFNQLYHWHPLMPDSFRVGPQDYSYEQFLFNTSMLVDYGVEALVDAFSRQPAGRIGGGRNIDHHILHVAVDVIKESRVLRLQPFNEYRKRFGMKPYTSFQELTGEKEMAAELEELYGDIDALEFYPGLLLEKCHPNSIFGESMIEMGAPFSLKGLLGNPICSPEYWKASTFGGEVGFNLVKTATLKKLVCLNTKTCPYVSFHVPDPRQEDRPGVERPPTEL
# Summary of the method: as §1
# [5] = Mouse Plasma Protein Stability (% Remaining); assay type: in vitro ADME; conditions: average
# [6] = readout pge2/pge2d4 area ratio, read-out: COX2 2 minutes pge2/pge2d4 area ratio Avg. IC50
# [7] = readout pge2 area (counts), read-out: COX2 2 minutes pge2 area (counts) Avg. IC50
# [8] = 10 minutes, readout pge2/pge2d4 area ratio, average LLE
# [9] = 10 minutes, readout pge2 area (counts), average LLE
# [10] = 10 minutes, readout pge2 area (counts), average, read-out: COX1 10 minutes pge2 area (counts) Avg. IC50
# [11] = 10 minutes, pge2/pge2d4 area ratio, head of this section not shown, inferred
# [12] = 10 minutes, pge2 area (counts), head of this section not shown, inferred
# [13] = 10 minutes, readout pge2/pge2d4 area ratio, average, read-out: COX1 10 minutes pge2/pge2d4 area ratio Avg. IC50
# [14] = 10 minutes, pge2 area (counts), head of this section not shown, inferred, read-out: COX1 10 minutes pge2 area (counts) Avg. IC50
SMILES,COX2 2 minutes pge2/pge2d4 area ratio Avg. LLE ([2]; readout pge2/pge2d4 area ratio),"IC50 [2, 6]",COX2 2 minutes pge2 area (counts) Avg. LLE ([2]; readout pge2 area (counts)),"IC50 [2, 7]",Mouse Plasma Protein Stability % Remaining Avg [5],COX1 10 minutes pge2 area (counts) Avg. LLE (ovine COX-1 (oCOX-1); [12]),IC50 (ovine COX-1 (oCOX-1); [13]),IC50 (ovine COX-1 (oCOX-1); [14]),Rat Plasma Protein Stability % Remaining Avg [1],Human Microsome Stability % Remaining Avg [3],fraction unbound [4],IC50 (ovine COX-1 (oCOX-1)),COX1 10 minutes pge2/pge2d4 area ratio Avg. LLE (ovine COX-1 (oCOX-1); [8]),COX1 10 minutes pge2 area (counts) Avg. LLE (ovine COX-1 (oCOX-1); [9]),IC50 (ovine COX-1 (oCOX-1); [10]),COX1 10 minutes pge2/pge2d4 area ratio Avg. LLE (ovine COX-1 (oCOX-1); [11])
CS(=O)(=O)c1ccc(-c2cccc(OCc3ccco3)n2)cc1 [Compound 28],4.722,0.0136 µM,4.78,0.0126 µM,,,,,102.8%,15%,0.025,52 µM,1.104,1.104,,
CS(=O)(=O)c1ccc(-c2cccc(/C=C\c3cccs3)n2)cc1 [Compound 41],3.735,0.019 µM,3.716,0.0217 µM,,,,,100%,,0.021,52 µM,0.234,0.2543,49.6 µM,
CS(=O)(=O)c1ccc(-c2cccc(NCc3cccs3)n2)cn1 [Compound 59],5.112,0.032 µM,5.062,0.0426 µM,,1.754,,,,28%,,52 µM,,,,1.754
Cc1cc(CNc2cccc(-c3ccc(S(C)(=O)=O)cc3)n2)co1 [Compound 27],4.789,0.0133 µM,4.853,0.0109 µM,,,,,99.7%,8.8%,0.037,52 µM,1.134,1.134,,
CS(=O)(=O)c1ccc(-n2ccc3ccc(NCc4cccs4)nc32)cc1 [Compound 57],3.1281,0.0306 µM,3.132,0.0298 µM,,−0.1826,,50.4 µM,,,,52 µM,,,,−0.196

# Now from value to compound, other results behind:
COX2 2 minutes pge2/pge2d4 area ratio Avg. LLE ([2]; readout pge2/pge2d4 area ratio),"IC50 [2, 6]",COX2 2 minutes pge2 area (counts) Avg. LLE ([2]; readout pge2 area (counts)),"IC50 [2, 7]",Mouse Plasma Protein Stability % Remaining Avg [5],COX1 10 minutes pge2 area (counts) Avg. LLE (ovine COX-1 (oCOX-1); [12]),IC50 (ovine COX-1 (oCOX-1); [13]),IC50 (ovine COX-1 (oCOX-1); [14]),SMILES,Rat Plasma Protein Stability % Remaining Avg [1],Human Microsome Stability % Remaining Avg [3],fraction unbound [4],IC50 (ovine COX-1 (oCOX-1)),COX1 10 minutes pge2/pge2d4 area ratio Avg. LLE (ovine COX-1 (oCOX-1); [8]),COX1 10 minutes pge2 area (counts) Avg. LLE (ovine COX-1 (oCOX-1); [9]),IC50 (ovine COX-1 (oCOX-1); [10]),COX1 10 minutes pge2/pge2d4 area ratio Avg. LLE (ovine COX-1 (oCOX-1); [11])
5.399,0.0066 µM,5.446,0.00715 µM,92.8%,,,,COc1ncc(OCc2cccs2)nc1-c1ccc(S(C)(=O)=O)cc1 [Compound 8],,,,,,,,
4.5476,0.00878 µM,4.59,0.00819 µM,,,,,CS(=O)(=O)c1ccc(-c2cccc(NCc3ccc(F)cc3)n2)cc1 [Compound 13],101%,62%,0.021,,,,,
3.877,0.02 µM,3.805,0.0232 µM,,,6.64 µM,,CS(=O)(=O)c1ccc(-c2ccc(F)c(OCc3cccs3)n2)cc1 [Compound 45],,,,,1.328,1.301,7.06 µM,
2.94,0.0414 µM,2.995,0.0342 µM,,0.02014,17.6 µM,30.2 µM,CS(=O)(=O)c1ccc(-n2ccc3ccc(Nc4ccccc4)nc32)cc1 [Compound 72],,,,,,,,0.2541
5.595,0.0361 µM,5.591,0.0366 µM,,3.473,5.36 µM,4.76 µM,COc1ncc(-c2ccc(S(N)(=O)=O)cc2)nc1NCc1cccs1 [Compound 64],,,,,,,,3.4205
3.898,0.058 µM,4.023,0.0525 µM,,2.207,,1.79 µM,CSc1ccc(-c2cncc(NCc3cccs3)n2)cc1 [Compound 84],,,,,,,,
3.092,1.61 µM,3.132,1.72 µM,,,,,CS(=O)(=O)c1ccc(-c2nc(NCc3ccco3)ccc2F)cc1 [Compound 218],,15%,,,,,,
